One assay concerns the target TIP60-KAT5 (Homo sapiens, UniProt Q92993). Description: Acetyltransferase biochemical assay (AlphaScreen), KAT5. In general terms: Bead proximity is the source of the signal in Alpha formats.
In the next assay the target is MOZ-KAT6A (Homo sapiens, UniProt Q92794, A567V). The assay can be described thus: Acetyltransferase biochemical assay (AlphaScreen), KAT6A.
A further assay concerns the target HBO-KAT7 (Homo sapiens, UniProt O95251). The assay can be described thus: Acetyltransferase biochemical assay (AlphaScreen), KAT7.

The term IC50 denotes the concentration that gives 50% inhibition. High values mean a need for much substance, low ones inhibition by little substance.

TIP60-KAT5, sequence (Q92993 with tags, fused parts or gaps isoform Q92993-2): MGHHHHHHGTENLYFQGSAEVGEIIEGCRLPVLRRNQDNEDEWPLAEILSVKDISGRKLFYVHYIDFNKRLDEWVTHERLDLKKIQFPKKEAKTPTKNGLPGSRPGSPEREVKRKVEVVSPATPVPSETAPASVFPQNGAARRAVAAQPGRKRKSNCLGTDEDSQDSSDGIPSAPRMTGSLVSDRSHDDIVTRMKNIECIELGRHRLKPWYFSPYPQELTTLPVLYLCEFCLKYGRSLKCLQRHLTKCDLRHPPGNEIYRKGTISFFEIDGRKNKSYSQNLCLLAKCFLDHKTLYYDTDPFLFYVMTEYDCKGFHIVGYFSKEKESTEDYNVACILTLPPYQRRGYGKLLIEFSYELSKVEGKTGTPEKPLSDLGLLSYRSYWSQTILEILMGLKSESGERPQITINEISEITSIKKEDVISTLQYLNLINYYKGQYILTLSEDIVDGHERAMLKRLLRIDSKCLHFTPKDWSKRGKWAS
MOZ-KAT6A, sequence (Q92794 with tags, fused parts or gaps A567V): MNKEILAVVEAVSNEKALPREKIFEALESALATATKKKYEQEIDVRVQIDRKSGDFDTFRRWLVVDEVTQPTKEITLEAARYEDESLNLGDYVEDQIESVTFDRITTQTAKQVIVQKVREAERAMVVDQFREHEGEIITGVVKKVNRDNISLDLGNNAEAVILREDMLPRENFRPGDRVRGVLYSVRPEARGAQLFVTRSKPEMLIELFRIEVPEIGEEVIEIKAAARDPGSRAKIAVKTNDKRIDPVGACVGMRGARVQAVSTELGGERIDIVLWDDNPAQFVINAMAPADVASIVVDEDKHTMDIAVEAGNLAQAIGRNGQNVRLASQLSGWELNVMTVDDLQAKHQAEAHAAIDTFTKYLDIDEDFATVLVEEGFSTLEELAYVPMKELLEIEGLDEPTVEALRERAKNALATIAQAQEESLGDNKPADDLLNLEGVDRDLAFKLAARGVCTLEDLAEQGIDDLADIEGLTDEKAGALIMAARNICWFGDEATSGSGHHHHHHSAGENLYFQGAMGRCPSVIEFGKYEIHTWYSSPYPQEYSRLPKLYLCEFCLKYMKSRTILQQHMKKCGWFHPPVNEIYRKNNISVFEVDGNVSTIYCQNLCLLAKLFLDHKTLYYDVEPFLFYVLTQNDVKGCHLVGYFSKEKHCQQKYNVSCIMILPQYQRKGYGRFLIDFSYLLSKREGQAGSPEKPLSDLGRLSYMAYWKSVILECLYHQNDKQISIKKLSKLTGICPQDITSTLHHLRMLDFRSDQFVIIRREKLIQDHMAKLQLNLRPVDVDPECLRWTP
HBO-KAT7, sequence (O95251 with tags, fused parts or gaps): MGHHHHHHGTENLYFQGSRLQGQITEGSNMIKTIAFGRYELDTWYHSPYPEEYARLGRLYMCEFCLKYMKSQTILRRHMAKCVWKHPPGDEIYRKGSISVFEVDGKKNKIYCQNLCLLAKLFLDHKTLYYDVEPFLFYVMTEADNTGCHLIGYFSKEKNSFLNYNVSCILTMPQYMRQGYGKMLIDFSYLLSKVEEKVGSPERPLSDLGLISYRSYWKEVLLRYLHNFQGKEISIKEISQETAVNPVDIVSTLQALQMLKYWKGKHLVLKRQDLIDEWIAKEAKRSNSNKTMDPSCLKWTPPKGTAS

As to `COCc1ccccc1S(=O)(=O)Nc1noc2cccc(Cl)c12` [Example 1, N-(4-chlorobenzo [d]isoxazol-3-yl)-2-(methoxymethyl) benzenesulfonamide], the IC50 is more than 125 µM on TIP60-KAT5, 91.4 µM at MOZ-KAT6A and 53.9 µM at HBO-KAT7.

Turning to `COCc1cccc(S(=O)(=O)Nc2noc3cccc(Cl)c23)c1` [Example 2, N-(4-chlorobenzo [d]isoxazol-3-yl)-3-(methoxymethyl) benzenesulfonamide], the IC50 against TIP60-KAT5 was more than 125 µM; against MOZ-KAT6A, 94.6 µM; against HBO-KAT7 it was 15.5 µM.

For the compound `COc1c(S(=O)(=O)Nc2noc3cccc(Cl)c23)ccc(Cl)c1Cl` [Example 3, 3,4-dichloro-N-(4-chlorobenzo[d]isoxazol-3-yl)-2-methoxy benzenesulfonamide], the IC50 came out at 65.1 µM on TIP60-KAT5, 23.8 µM against MOZ-KAT6A and 23.2 µM on HBO-KAT7.

For `O=S(=O)(Nc1noc2cccc(Cl)c12)c1ccccc1Oc1ccccc1` [Example 4, N-(4-chlorobenzo [d]isoxazol-3-yl)-2-phenoxybenzene sulfonamide], the values for the IC50 on TIP60-KAT5, against MOZ-KAT6A and at HBO-KAT7 were 35.2 µM, 6.22 µM and 5.17 µM, respectively.

On to `COc1ccc(F)cc1S(=O)(=O)Nc1noc2cccc(Cl)c12` [Example 5, N-(4-chlorobenzo [d]isoxazol-3-yl)-5-fluoro-2-methoxybenzene sulfonamide], for which the IC50 against TIP60-KAT5 is 114 µM; on MOZ-KAT6A it was 31.3 µM; against HBO-KAT7, 6.01 µM.

For the compound `Cn1nc2cccc(S(=O)(=O)Nc3noc4cccc(Cl)c34)c2n1` [Example 6, N-(4-chlorobenzo [d]isoxazol-3-yl)-2-methyl-2H-benzo[d][1,2,3]triazole-4-sulfonamide], the IC50 came to 94.9 µM at TIP60-KAT5, 30.2 µM against MOZ-KAT6A and 6.28 µM against HBO-KAT7.

Take `O=S(=O)(Nc1noc2cccc(Cl)c12)c1cccc2nsnc12` [Example 7, N-(4-chlorobenzo [d]isoxazol-3-yl)benzo[c][1,2,5]thiadiazole-4-sulfonamide]: the IC50 against TIP60-KAT5 is more than 125 µM; on MOZ-KAT6A, 62.7 µM; on HBO-KAT7, 14.2 µM.

For the compound `O=S(=O)(Nc1noc2cccc(Cl)c12)c1ccc2nc(O)oc2c1` [Example 8, N-(4-chlorobenzo [d]isoxazol-3-yl)-2-hydroxybenzo[d]oxazole-6-sulfonamide], the IC50 against TIP60-KAT5 is more than 125 µM; against MOZ-KAT6A it was 113 µM; on HBO-KAT7, more than 125 µM.

For `O=S(=O)(Nc1noc2cccc(Cl)c12)c1ccc(OCc2ccccc2)cc1` [Example 9, 4-(benzyloxy)-N-(4-chlorobenzo[d]isoxazol-3-yl)benzenesulfonamide], the IC50 came out at 41 µM against TIP60-KAT5, 26.8 µM against MOZ-KAT6A and 8.42 µM against HBO-KAT7.

With `O=S(=O)(Nc1noc2cccc(Cl)c12)c1cc(OCC(F)(F)F)ccc1OCC(F)(F)F` [Example 10, N-(4-chlorobenzo [d]isoxazol-3-yl)-2,5-bis(2,2,2-trifluoroethoxy) benzenesulfonamide], the IC50 on TIP60-KAT5 was 93.7 µM; against MOZ-KAT6A, 17.5 µM; against HBO-KAT7, 54.1 µM.

Regarding `COC(=O)c1ccccc1S(=O)(=O)Nc1noc2cccc(Cl)c12` [Example 12, methyl 2-(N-(4-chlorobenzo[d]isoxazol-3-yl)sulfamoyl)benzoate], the IC50 at TIP60-KAT5 was more than 125 µM; on MOZ-KAT6A it was more than 125 µM; on HBO-KAT7 it was 49.9 µM.

Turning to `Cn1c(=O)oc2cc(S(=O)(=O)Nc3noc4cccc(Cl)c34)ccc21` [Example 13, N-(4-chlorobenzo [d]isoxazol-3-yl)-3-methyl-2-oxo-2,3-dihydrobenzo[d]oxazole-6-sulfonamide], the IC50 at TIP60-KAT5 stood at 120 µM; at MOZ-KAT6A, 63.9 µM; against HBO-KAT7, 63.8 µM.

On to `O=S(=O)(Nc1noc2cccc(Cl)c12)c1ccc2c(c1)OCCCO2` [Example 14, N-(4-chlorobenzo [d]isoxazol-3-yl)-3,4-dihydro-2H-benzo[b][1,4]dioxepine-7-sulfonamide], for which the IC50 at TIP60-KAT5 was more than 125 µM; at MOZ-KAT6A it was 45 µM; on HBO-KAT7, 15.2 µM.

In the case of `O=S(=O)(Nc1noc2cccc(Cl)c12)c1cccc2scnc12` [Example 15, N-(4-chlorobenzo [d]isoxazol-3-yl)benzo [d]thiazole-4-sulfonamide], the IC50 at TIP60-KAT5 was determined as 7.29 µM; at MOZ-KAT6A it was 1.91 µM; on HBO-KAT7 it was 1.46 µM.

For the compound `O=S(=O)(Nc1noc2cccc(Cl)c12)c1cccc2nonc12` [Example 16, N-(4-chlorobenzo [d]isoxazol-3-yl)benzo[c][1,2,5]oxadiazole-4-sulfonamide], the IC50 against TIP60-KAT5 was determined as 30.2 µM; at MOZ-KAT6A, 15.1 µM; on HBO-KAT7, 9.63 µM.

As for `O=S(=O)(Nc1noc2cccc(Cl)c12)c1ccc(Oc2ccc(F)cc2)cc1` [Example 17, N-(4-chlorobenzo[d]isoxazol-3-yl)-4-(4-fluorophenoxy) benzenesulfonamide], the IC50 amounted to 27.7 µM against TIP60-KAT5, 11.8 µM at MOZ-KAT6A and 14.6 µM on HBO-KAT7.

In the case of `CC(C)c1ccc(S(=O)(=O)Nc2noc3cccc(Cl)c23)cc1` [Example 22, N-(4-chlorobenzo [d]isoxazol-3-yl)-4-isopropylbenzene sulfonamide], the IC50 at TIP60-KAT5 was found to be 38.9 µM; at MOZ-KAT6A it was 5.21 µM; against HBO-KAT7 it was 6.3 µM.

As for `O=S(=O)(Nc1noc2cccc(Cl)c12)c1ccc(OC(F)(F)F)cc1` [Example 23, N-(4-chlorobenzo [d]isoxazol-3-yl)-4-(trifluoromethoxy) benzenesulfonamide], the IC50 against TIP60-KAT5 turned out to be 72.9 µM; on MOZ-KAT6A, 21.8 µM; on HBO-KAT7, 23.9 µM.

Take `CC(C)Oc1ccc(S(=O)(=O)Nc2noc3cccc(Cl)c23)cc1` [Example 24, N-(4-chlorobenzo [d]isoxazol-3-yl)-4-isopropoxybenzene sulfonamide]: the figures for the IC50 on TIP60-KAT5, against MOZ-KAT6A and against HBO-KAT7 were more than 125 µM, more than 125 µM and 33.9 µM, respectively.

With `CC(C)(C)c1ccc(S(=O)(=O)Nc2noc3cccc(Cl)c23)cc1` [Example 25, 4-(tert-butyl)-N-(4-chlorobenzo[d]isoxazol-3-yl)benzenesulfonamide], the IC50 on TIP60-KAT5 came out at 120 µM; at MOZ-KAT6A, 33.2 µM; against HBO-KAT7, 41.9 µM.

Regarding `Cc1ccc(S(=O)(=O)Nc2noc3cccc(Cl)c23)cc1` [Example 27, N-(4-chlorobenzo [d]isoxazol-3-yl)-4-methylbenzenesulfonamide], the half-maximal inhibitory concentration (IC50) was more than 125 µM against TIP60-KAT5, 71.5 µM against MOZ-KAT6A and 32.1 µM on HBO-KAT7.

On to `O=S(=O)(Nc1noc2cccc(Cl)c12)c1ccc(-n2cccn2)cc1` [Example 28, N-(4-chlorobenzo [d]isoxazol-3-yl)-4-(1H-pyrazol-1-yl)benzenesulfonamide], for which the results for the IC50 against TIP60-KAT5, against MOZ-KAT6A and against HBO-KAT7 were more than 125 µM, 117 µM and 54.8 µM, respectively.

On to `O=S(=O)(Nc1noc2cccc(Cl)c12)c1c(F)cccc1F` [Example 29, N-(4-chlorobenzo [d]isoxazol-3-yl)-2,6-difluorobenzene sulfonamide], for which the IC50 against TIP60-KAT5 was more than 125 µM; against MOZ-KAT6A, more than 125 µM; against HBO-KAT7, 94.1 µM.

In the case of `O=S(=O)(Nc1noc2cccc(Cl)c12)c1ccccc1F` [Example 30, N-(4-chlorobenzo [d]isoxazol-3-yl)-2-fluorobenzenesulfonamide], the IC50 against TIP60-KAT5 was more than 125 µM; against MOZ-KAT6A, 89.5 µM; against HBO-KAT7 it was 11.5 µM.

In the case of `Cc1ccc(S(=O)(=O)Nc2noc3cccc(Cl)c23)cc1Cl` [Example 31, 3-chloro-N-(4-chlorobenzo[d]isoxazol-3-yl)-4-methylbenzenesulfonamide], the IC50 is more than 125 µM against TIP60-KAT5, 36.1 µM on MOZ-KAT6A and 53.6 µM at HBO-KAT7.

Consider `O=S(=O)(Nc1noc2cccc(Cl)c12)c1ccc(Br)cc1OC(F)(F)F` [Example 32, 4-bromo-N-(4-chlorobenzo[d]isoxazol-3-yl)-2-(trifluoromethoxy) benzenesulfonamide], for which the IC50 against TIP60-KAT5 turned out to be 56 µM; against MOZ-KAT6A, 31.1 µM; against HBO-KAT7 it was 14.9 µM.

`COc1cc(C)c(C)cc1S(=O)(=O)Nc1noc2cccc(Cl)c12` [Example 33, N-(4-chlorobenzo [d]isoxazol-3-yl)-2-methoxy-4,5-dimethylbenzenesulfonamide]: the IC50 was determined as 90.5 µM on TIP60-KAT5, 6.85 µM at MOZ-KAT6A and 11.4 µM against HBO-KAT7.

On to `O=S(=O)(Nc1noc2cccc(Cl)c12)c1ccc(OC(F)F)cc1` [Example 34, N-(4-chlorobenzo [d]isoxazol-3-yl)-4-(difluoromethoxy) benzenesulfonamide], for which the IC50 against TIP60-KAT5 was more than 125 µM; at MOZ-KAT6A, more than 125 µM; against HBO-KAT7, 31.5 µM.

For `O=S(=O)(Nc1noc2cccc(Cl)c12)c1ccc(S(F)(F)(F)(F)F)cc1` [Example 35, N-(4-chlorobenzo [d]isoxazol-3-yl)-4-(pentafluoro-λ^6-sulfanyl)benzene sulfonamide], the IC50 came out at 33.8 µM against TIP60-KAT5, 4.63 µM on MOZ-KAT6A and 8.75 µM on HBO-KAT7.

As to `O=S(=O)(Nc1noc2cccc(Cl)c12)c1cccc(S(F)(F)(F)(F)F)c1` [Example 36, N-(4-chlorobenzo [d]isoxazol-3-yl)-3-(pentafluoro-λ^6-sulfanyl)benzene sulfonamide], the IC50 at TIP60-KAT5 was 39 µM; at MOZ-KAT6A, 17.7 µM; on HBO-KAT7, 26.3 µM.

In the case of `COc1cc(C)c(C(C)C)cc1S(=O)(=O)Nc1noc2cccc(Cl)c12` [Example 37, N-(4-chlorobenzo [d]isoxazol-3-yl)-5-isopropyl-2-methoxy-4-methylbenzenesulfonamide], the IC50 at TIP60-KAT5 is more than 125 µM; on MOZ-KAT6A it was 24.8 µM; against HBO-KAT7 it was 114 µM.

On to `O=S(=O)(Nc1noc2cccc(Cl)c12)c1ccccc1OC(F)F` [Example 38, N-(4-chlorobenzo [d]isoxazol-3-yl)-2-(difluoromethoxy) benzenesulfonamide], for which the figures for the IC50 against TIP60-KAT5, on MOZ-KAT6A and against HBO-KAT7 were 80.1 µM, 27.5 µM and 6.7 µM, respectively.

The values are drawn from US12365655B2, “Compounds” (CTXT PTY LTD, priority 2018, dated 2025).
